ChEMBL document CHEMBL4376892, “Identification of Parthenolide Dimers as Activators of Pyruvate Kinase M2 in Xenografts of Glioblastoma Multiforme in Vivo” (J Med Chem, 2020)

Tests used:
[1] = test system: NIH3T3; assay: Cytotoxicity against mouse 3T3 cells assessed as reduction in cell viability after 72 hrs by MTT assay; assay type: cell-based; conditions: NIH3T3, 72 h
[2] = biological target: T1, Pyruvate kinase PKM (Homo sapiens, UniProt P14618); assay: Activation of recombinant human N-terminal 6His-tagged PKM2 expressed in Escherichia coli BL21 cells at 10 uM after 30 mins by fluorescence based analysis relative to control
Target sequence in this assay (P14618 2-531 limits assumed): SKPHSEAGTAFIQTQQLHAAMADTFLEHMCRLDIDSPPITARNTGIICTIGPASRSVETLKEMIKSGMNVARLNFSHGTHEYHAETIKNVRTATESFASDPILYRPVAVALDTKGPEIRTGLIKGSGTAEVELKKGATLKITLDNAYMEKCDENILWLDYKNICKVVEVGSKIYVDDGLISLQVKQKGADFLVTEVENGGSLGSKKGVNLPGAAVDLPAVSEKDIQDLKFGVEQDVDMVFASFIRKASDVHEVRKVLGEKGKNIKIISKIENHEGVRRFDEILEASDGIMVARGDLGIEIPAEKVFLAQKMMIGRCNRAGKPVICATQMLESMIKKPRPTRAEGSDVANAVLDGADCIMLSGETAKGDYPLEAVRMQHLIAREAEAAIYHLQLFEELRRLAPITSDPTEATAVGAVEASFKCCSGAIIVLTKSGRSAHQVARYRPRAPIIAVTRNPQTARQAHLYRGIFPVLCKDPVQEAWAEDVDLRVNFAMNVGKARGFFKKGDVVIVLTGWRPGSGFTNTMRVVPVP

[3] = test system: SF-126; assay: Antiproliferative activity against human SF126 cells assessed as reduction in cell viability after 72 hrs by MTT assay; assay type: functional, cell-based; conditions: SF-126, 72 h
[4] = test system: C6; assay: Antiproliferative activity against rat C6 cells assessed as reduction in cell viability after 72 hrs by MTT assay; assay type: functional, cell-based; conditions: C6, 72 h
[5] = biological target: T1, Pyruvate kinase PKM; assay: Activation of recombinant human N-terminal 6His-tagged PKM2 expressed in Escherichia coli BL21 cells after 50 mins by fluorescence based analysis
Target sequence in this assay (P14618 whole entry): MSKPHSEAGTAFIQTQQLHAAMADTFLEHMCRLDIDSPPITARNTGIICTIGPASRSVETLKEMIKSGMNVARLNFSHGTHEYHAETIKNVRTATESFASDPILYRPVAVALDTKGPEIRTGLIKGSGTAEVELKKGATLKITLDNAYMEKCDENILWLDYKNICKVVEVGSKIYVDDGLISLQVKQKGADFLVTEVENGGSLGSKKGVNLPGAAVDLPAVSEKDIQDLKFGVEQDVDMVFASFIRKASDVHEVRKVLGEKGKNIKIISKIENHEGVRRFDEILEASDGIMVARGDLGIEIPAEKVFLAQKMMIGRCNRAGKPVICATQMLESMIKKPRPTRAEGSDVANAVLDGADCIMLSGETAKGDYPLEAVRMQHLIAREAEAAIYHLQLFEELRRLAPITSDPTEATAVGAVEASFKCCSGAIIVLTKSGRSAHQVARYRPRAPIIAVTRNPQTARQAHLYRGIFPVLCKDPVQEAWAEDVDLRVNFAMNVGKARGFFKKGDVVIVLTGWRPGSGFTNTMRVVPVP

[6] = Antiproliferative activity against human SHG44 cells assessed as reduction in cell viability after 72 hrs by MTT assay; assay type: functional, cell-based; conditions: SHG-44, 72 h
[7] = test system: U-87 MG; assay: Antiproliferative activity against human U87 cells assessed as reduction in cell viability after 72 hrs by MTT assay; assay type: functional, cell-based, U-87MG ATCC
[8] = test system: U-251; assay: Antiproliferative activity against human U251 cells assessed as reduction in cell viability after 72 hrs by MTT assay; assay type: functional, cell-based; conditions: U-251, 72 h
[9] = test system: U-118-MG; assay: Antiproliferative activity against human U118MG cells assessed as reduction in cell viability after 72 hrs by MTT assay; assay type: functional, cell-based

| Structure (SMILES) | IC50 [1] [µM] | fold change (FC) [2] | IC50 [3] [µM] | IC50 [4] [µM] | AC50 [5] [µM] | IC50 [6] [µM] | IC50 [7] [µM] | IC50 [8] [µM] | IC50 [9] [µM] |
| --- | --- | --- | --- | --- | --- | --- | --- | --- | --- |
| C=C1C(=O)O[C@H]2[C@H]1CC/C(C(=O)OCCOCCOCCOC(=O)/C1=C/CC[C@@]3(C)O[C@H]3[C@H]3OC(=O)C(=C)[C@@H]3CC1)=C\CC[C@@]1(C)O[C@@H]21 | 7.86 | > 2 | 10.2 | 1.59 | 0.052 | 10.5 | 3.09 | 9.59 | 2.87 |
| C=C1C(=O)O[C@H]2[C@H]1CC/C(C(=O)OCCOCCOCCOCCOCCOCCOCCOCCOCCOCCOC(=O)/C1=C/CC[C@@]3(C)O[C@H]3[C@H]3OC(=O)C(=C)[C@@H]3CC1)=C\CC[C@@]1(C)O[C@@H]21 | > 50 | > 2 | 23.1 | 14.2 | – | 24.5 | > 50 | 23.3 | 18.7 |
| C=C1C(=O)O[C@H]2[C@H]1CC/C(C(=O)OCCOCCOCCOCCOCCOCCOCCOCCOCCOCCOCCOCCOCCOCCOCCOCCOCCOCCOCCOCCOCCOCCOCCOCCOC(=O)/C1=C/CC[C@@]3(C)O[C@H]3[C@H]3OC(=O)C(=C)[C@@H]3CC1)=C\CC[C@@]1(C)O[C@@H]21 | > 50 | > 2 | > 50 | > 50 | – | > 50 | > 50 | > 50 | > 50 |
| C=C1C(=O)O[C@H]2[C@H]1CC/C(C(=O)OCCOCCOCCOCCOCCOCCOCCOCCOC(=O)/C1=C/CC[C@@]3(C)O[C@H]3[C@H]3OC(=O)C(=C)[C@@H]3CC1)=C\CC[C@@]1(C)O[C@@H]21 | 22 | > 2 | > 50 | 4.98 | 0.065 | 25.7 | 12.9 | > 50 | 11.8 |
| C=C1C(=O)O[C@H]2[C@H]1CC/C(C(=O)OCCOCCOCCOCCOCCOCCOC(=O)/C1=C/CC[C@@]3(C)O[C@H]3[C@H]3OC(=O)C(=C)[C@@H]3CC1)=C\CC[C@@]1(C)O[C@@H]21 | > 50 | > 2 | > 50 | > 50 | – | > 50 | 15.1 | > 50 | 10.6 |
| C=C1C(=O)O[C@H]2[C@H]1CC/C(C(=O)OCCOCCOCCOCCOCCOC(=O)/C1=C/CC[C@@]3(C)O[C@H]3[C@H]3OC(=O)C(=C)[C@@H]3CC1)=C\CC[C@@]1(C)O[C@@H]21 | 18.8 | > 2 | 21 | 4.82 | – | 18.5 | 10.6 | 14.1 | 7.5 |
| C=C1C(=O)O[C@H]2[C@H]1CC/C(C(=O)OCCOCCOCCOCCOC(=O)/C1=C/CC[C@@]3(C)O[C@H]3[C@H]3OC(=O)C(=C)[C@@H]3CC1)=C\CC[C@@]1(C)O[C@@H]21 | 16.1 | > 2 | 20.1 | 4.26 | – | 16.3 | 9.13 | 16.6 | 7.97 |
